PubChem BioAssay (NCI)
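The compound was tested at five concentrations on cells cultured in 96-well plates, with a 48-hour exposure period. GI50 marks 50% less growth. Definition used: TGI = concentration required for complete inhibition of growth.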

Key:
Experiment in all cases: NCI-60 cell line screen, 48 h
MCF7 breast = system: MCF7 breast
COLO 205 colon = system: COLO 205 colon
MDA-MB-231 breast = system: MDA-MB-231 breast
MOLT-4 leukemia = system: MOLT-4 leukemia
SR leukemia = system: SR leukemia
NCI-H23 lung = system: NCI-H23 lung
UACC-257 melanoma = system: UACC-257 melanoma
SNB-75 CNS = system: SNB-75 CNS
CAKI-1 renal = system: CAKI-1 renal
SF-539 CNS = system: SF-539 CNS

SMILES | GI50 (MCF7 breast) | TGI (MCF7 breast) | GI50 (COLO 205 colon) | TGI (COLO 205 colon) | GI50 (MDA-MB-231 breast) | TGI (MDA-MB-231 breast) | GI50 (MOLT-4 leukemia) | TGI (MOLT-4 leukemia) | GI50 (SR leukemia) | TGI (SR leukemia) | GI50 (NCI-H23 lung) | TGI (NCI-H23 lung) | GI50 (UACC-257 melanoma) | TGI (UACC-257 melanoma) | GI50 (SNB-75 CNS) | TGI (SNB-75 CNS) | GI50 (CAKI-1 renal) | TGI (CAKI-1 renal) | GI50 (SF-539 CNS) | TGI (SF-539 CNS)
O=C1c2cccnc2C(=O)c2c1c(C(=O)NCCn1ccnc1)c1ccccn21 | 1.19 µM | 3.37 µM | 1.48 µM | 3.17 µM | 3.46 µM | > 100 µM | 3.89 µM | 47.9 µM | 2.2 µM | > 100 µM | 1.18 µM | 4.21 µM | 2.06 µM | 3.93 µM | 3.24 µM | 16.8 µM | 15.1 µM | 34.5 µM | 2.45 µM | 6.47 µM
CN(C)Cc1ccc(C(C)(C)C)cc1-c1cc(C(C)(C)C)ccc1CN(C)C | – | > 100 µM | – | 37.9 µM | – | > 100 µM | – | > 100 µM | – | > 100 µM | – | > 100 µM | – | 51.7 µM | – | > 100 µM | – | > 100 µM | – | > 100 µM
CC(c1ccccc1)[C@@H](C(=O)Nc1ccc(I)cc1F)N1C(=O)N[C@H](c2ccc(OC[C@H](O)CO)cc2)C1=O (stereo partly drawn) | > 15 µM | > 25 µM | 0.0368 µM | > 25 µM | 1.56 µM | > 25 µM | 12.5 µM | > 25 µM | > 20.5 µM | > 25 µM | 0.902 µM | > 25 µM | 0.052 µM | 0.892 µM | > 11.1 µM | > 25 µM | 16.2 µM | > 25 µM | 15.5 µM | > 25 µM
COc1c(O)cc2c(c1O)C(=O)C1=C(CCCC1)C2=O | – | 80.7 µM | – | 40.1 µM | – | 64.1 µM | – | 23 µM | – | 34.2 µM | – | 41.3 µM | – | 81.2 µM | – | – | – | 71 µM | – | 44 µM
CCN(CC)CCC(CNc1ccnc2cc(Cl)ccc12)c1ccccc1 (stereo not drawn) | 4.75 µM | 18 µM | 1.45 µM | 3.33 µM | 2.18 µM | 15.8 µM | 4.66 µM | 58.2 µM | 2.23 µM | 8.48 µM | 11.5 µM | 38.8 µM | 1.86 µM | 3.36 µM | 2.61 µM | 9.82 µM | 3.52 µM | 18.5 µM | 1.81 µM | 4.11 µM
C[C@H](CS)C(=O)N1c2ccccc2C[C@H]1C(=O)O | – | > 100 µM | – | > 100 µM | – | > 100 µM | – | > 100 µM | – | > 100 µM | – | > 100 µM | – | > 100 µM | – | > 100 µM | – | > 100 µM | – | > 100 µM
CCN(CC)c1ccc2nc3c4ccccc4c(=O)cc-3n(-c3ccccc3)c2c1 | 0.53 µM | 7.83 µM | 0.353 µM | 1.59 µM | 2.22 µM | 8.2 µM | 2.36 µM | 7.48 µM | – | – | 2.18 µM | 9.09 µM | 1.12 µM | 2.9 µM | 2.34 µM | 12.7 µM | 1.32 µM | 4.52 µM | 2.49 µM | 6.8 µM
Cc1ccc(Cl)cc1NC(=O)c1cc2ccccc2cc1O | 1.35 µM | 4.88 µM | 1.7 µM | 3.48 µM | 0.377 µM | 2.06 µM | 0.558 µM | 3.42 µM | 0.217 µM | 1.21 µM | 0.234 µM | 0.707 µM | 0.277 µM | 0.909 µM | 0.52 µM | 15.3 µM | 0.219 µM | 0.921 µM | 0.356 µM | 1.82 µM
CN(C)C(=O)NC(=S)N(C)C | – | – | – | – | – | – | – | > 100 µM | – | > 100 µM | – | > 100 µM | – | > 100 µM | – | > 100 µM | – | > 100 µM | – | > 100 µM
O=C(COc1ccc(OCC(=O)N2C(=O)CN(c3ccccc3)C2=S)cc1)N1C(=O)CN(c2ccccc2)C1=S | – | > 100 µM | > 25 µM | > 100 µM | > 25 µM | > 100 µM | > 100 µM | > 100 µM | > 100 µM | > 100 µM | > 25 µM | > 100 µM | > 25 µM | > 100 µM | 33.7 µM | > 100 µM | > 25 µM | > 100 µM | – | > 100 µM
CCOc1ccc2c(c1)CN(Cc1ccc(Cl)cc1)CO2 | 16.4 µM | 35.2 µM | 19 µM | 36.1 µM | 12.9 µM | 34.6 µM | 19.3 µM | 67.5 µM | 15.6 µM | 63.7 µM | 25.8 µM | 94.5 µM | 16 µM | 35.8 µM | 15 µM | 45.8 µM | 16.3 µM | 43.2 µM | 15.8 µM | 32.4 µM
CCN(CC)CCN1C(=O)C2C3C(=O)CC(C)(CC3C)C2C1=O (stereo not drawn) | – | – | > 100 µM | > 100 µM | > 100 µM | > 100 µM | > 100 µM | > 100 µM | > 100 µM | > 100 µM | > 100 µM | > 100 µM | > 100 µM | > 100 µM | > 100 µM | > 100 µM | > 100 µM | > 100 µM | > 100 µM | > 100 µM
CN(C)C=NC1CCC(C(C)(C)C)CC1 (stereo not drawn) | – | > 100 µM | – | 33.2 µM | – | 26.7 µM | – | 32.2 µM | – | – | – | 34.3 µM | – | 29.1 µM | – | 34.9 µM | – | 33.1 µM | – | 31.8 µM
Clc1ccc(OCc2nnc3n2N=C(c2ccc(Br)cc2)CS3)cc1 | – | – | – | – | – | – | – | > 100 µM | – | > 100 µM | – | > 100 µM | – | 83.3 µM | – | – | – | – | – | 24.5 µM
O=C(N/C(=C\c1ccccc1Cl)c1nc2ccccc2[nH]1)c1ccccc1 | – | – | – | > 100 µM | – | – | – | > 100 µM | – | 79.3 µM | – | > 100 µM | – | – | – | – | – | > 100 µM | – | > 100 µM
O=C1c2ccccc2C(=O)c2c1ccc1c(=O)n(-c3ccccc3C(F)(F)F)nnc21 | 1.86 µM | 4.64 µM | 1.83 µM | 4.28 µM | 2.07 µM | 7.04 µM | 1.53 µM | 8.12 µM | – | – | 1.34 µM | 3.51 µM | 1.71 µM | 3.51 µM | 1.56 µM | 15.5 µM | 2.77 µM | > 100 µM | 2.57 µM | 8.49 µM
